Results: patent US11261179B2, “Small molecules” (University of Dundee, priority 2017, dated 2022)
Entries after “also recorded” stand apart in the source; their conditions may differ.

How the values were obtained:
[1] = target: pVHL30 (VCB complex) (Homo sapiens, UniProt P40337); assay: ITC titration against VCB, long VHL isoform; assay type: binding
Procedure: Titrations were performed on an ITC200 micro-calorimeter (GE Healthcare). […] The final DMSO concentration was 0.15% v/v. VBC protein experiments were carried out in a buffer containing 20 mM Bis-tris propane, 150 mM NaCl, 1 mM TCEP, 0.15% v/v DMSO, pH 7.4. The titrations consisted of 19 injections of 2 μL compounds solution (150 μM, in the syringe) at a rate of 2 s/μL at 120 s time intervals into the VCB protein solution (20 μM, in the cell). An initial injection of compound solution (0.4 μL) was made and discarded during data analysis. All experiments were performed at 25° C., whilst stirring the syringe at 600 rpm. The data were fitted to a single binding site model to obtain the stoichiometry n, the dissociation constant Kd and the enthalpy of binding ΔH using the Microcal LLC ITC200 Origin software provided by the manufacturer.

[2] = target: T1, pVHL30 (long isoform of VHL) (Homo sapiens, UniProt P40337); assay: Western blot of VHL levels in HeLa cells; assay type: cell-based
T1 construct: endogenous in cells; host or cells: HeLa
Procedure: (§1) For single time point treatment experiments, cells were transferred in 6-well plates with 5×10^5 cells per well in 2 ml media in order to achieve 80% confluence the following day. Stock concentrations of compounds were prepared by solubilizing the powder in 100% v/v DMSO to the final desired stock concentration.
(§2) On the day of treatment, all compound samples were prepared as 100-fold concentrated compound solution using DMEM just before treatment. The experiment samples (20 μL) were added to the 6 well plate containing 2 ml of media. The final DMSO concentration was 0.1% v/v. Cells were incubated at 37° C. and 5% CO2 for the desired time before harvesting.
(§3) For time dependent treatment, cells were transferred in 6-well plates with 3×10^5 cells per well in 2 ml media. Samples were prepared as detailed above or the single time point experiments. Treatment was conducted at given time points prior to harvest.
Cells were transferred in 6-well plates with 5×10^5 cells per well in 2 ml media in order to achieve 80% confluence the day after. At t=0, MLN4924 was added into the desired wells at 3 μM final concentration and 0.1% v/v of DMSO. DMSO (0.1% v/v final conc.) was added to the remaining wells in order to match identical conc. of vehicle in all wells. At t=3 h, MG 132 was added into the desired wells at 50 μM final conc. and 0.1% v/v of DMSO. DMSO (0.1% v/v final conc.) was added to the remaining wells in order to achieve the same conc. of vehicle in all the wells. […] DMSO (0.1% v/v final conc.) was added to the remaining wells in order to obtain the same conc. of vehicle in all the wells. The total final concentration of DMSO was therefore 0.3% v/v. Plates were incubated for 4 h at 37° C. and 5% CO2 before harvesting.
Cells were transferred in 6-well plates with 5×10^5 cells per well in 2 ml media in order to achieve 80% confluence the day after. […] Plates were incubated for the desired time at 37° C. and 5% CO2 before harvesting.
For this experiments, cells were transferred in 6-well plates with 5×10^5 cells per well in 2 ml media in order to achieve 80% confluence the day after. […] Plates were incubated for the desired time at 37° C. and 5% CO2 before harvesting.
(§4) Cells were lysed in lysis buffer (20 mM Tris pH 8, 150 mM NaCl, 1% Triton x100) and a protease inhibitor cocktail (Roche) per 10 ml buffer. For protein extracts, the dishes were placed on ice. The media was aspirated and the tissue layer washed twice with ice-cold phosphate buffer saline (PBS). Lysis buffer (120 μl) was added and the cells detached from the surface with a cell scraper. After removal of the insoluble fraction by centrifugation, the protein concentration of the supernatant was determined by Pierce™ Coomassie (Bradford) Protein Assay Kit. Protein extracts were fractionated by SDS-PAGE on 4-12% Tris-Acetate NuPage® Novex® (Life Technologies) polyacrylamide gels and transferred to a nitrocellulose membrane using wet transfer. The membrane was then blocked with 5% w/v Bovine serum albumin (BSA) in Tris-buffered saline (TBS) with 0.1% w/v Tween-20. For detecting proteins the following primary antibodies in the given concentrations were used: anti-β-Actin (Cell Signaling Technology, 4970S, 13E5) 1:2000, anti-VHL (Cell Signaling Technology, #68547) 1:1000, anti-Hif-1α (BD Biosciences, 610959, clone 54) 1:1000, anti-hydroxy-HIF-1α (Hyp564) (Cell Signaling Techonology; #3434) 1:1000, anti-PHD2 (Bethyl Laboratories; A300-322A) 1:1000, anti-PHD3 (Bethyl Laboratories; A300-327A) 1:1000, anti-CRBN (Proteintech; 11435-1-AP) 1:1000.
(§5) Following incubation with a horseradish peroxidase-conjugated secondary antibody (Cell Signaling Technology), the signal was developed using enhanced chemiluminescence (ECL) Western Blotting Detection Kit (Amersham) on Amersham Hyperfilm ECL film (Amersham).
Band quantification was performed using ImageJ software and reported as relative amount as ratio of the each protein band relative to the lane's loading control. […]

[3] = system: HIF-1α / hydroxylated HIF-1α (Hdy-HIF-1α); assay: Western blot of HIF-1α and Hdy-HIF-1α levels in HeLa cells; assay type: cell-based, Human; conditions: HeLa, 1 μM, 10 h
Procedure: as §1, §2, §3, §4, §5
Band quantification was performed using ImageJ software and reported as relative amount as ratio of the each protein band relative to the lane's loading control. The values obtained were then normalized to 0.1% DMSO vehicle control.

[4] = target: VCB complex (Homo sapiens, UniProt P40337); assay: Size exclusion chromatography of VCB complex formation; assay type: binding; conditions: SEC, VCB 50 μM, compound 30 μM
Procedure: SEC experiments were carried out in a AKTA pure system (GE Healthcare) at room temperature. The oligomeric state of the VCB complex in solution was analyzed by gel filtration in a buffer containing 20 mM Bis-Tris (pH 7), 150 mM NaCl and 1 mM 1,4-dithiothreitol (DTT) using a Superdex 200 Increase 10/300 GL column (GE Healthcare) calibrated with globular proteins of known molecular weight (GE Healthcare, 28-4038-41/42). […] Sample volume for each injection was 200 μL, and the flow rate was 0.5 mL/min. Peak elution was monitored using ultraviolet absorbance at 280 nm.

pVHL30 (VCB complex), sequence (P40337 whole entry, canonical isoform): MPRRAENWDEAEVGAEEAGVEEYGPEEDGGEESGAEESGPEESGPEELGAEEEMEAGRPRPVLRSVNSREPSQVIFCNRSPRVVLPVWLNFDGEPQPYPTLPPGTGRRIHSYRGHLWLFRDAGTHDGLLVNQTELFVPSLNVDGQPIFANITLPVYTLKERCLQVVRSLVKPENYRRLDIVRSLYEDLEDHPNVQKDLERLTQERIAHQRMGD
pVHL30 (VCB complex), sequence (Q15370 1-104 partner limits assumed): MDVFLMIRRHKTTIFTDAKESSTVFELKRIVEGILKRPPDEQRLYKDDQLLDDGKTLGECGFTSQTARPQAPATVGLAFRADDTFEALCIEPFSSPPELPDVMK
pVHL30 (VCB complex), sequence (Q15369 17-112 partner limits assumed): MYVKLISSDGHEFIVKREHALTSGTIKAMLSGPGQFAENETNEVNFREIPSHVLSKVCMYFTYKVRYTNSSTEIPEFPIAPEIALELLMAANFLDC
T1 sequence (P40337 whole entry, canonical isoform): as the sequence (P40337 whole entry, canonical isoform) above
VCB complex, sequence (P40337 54-213 limits assumed): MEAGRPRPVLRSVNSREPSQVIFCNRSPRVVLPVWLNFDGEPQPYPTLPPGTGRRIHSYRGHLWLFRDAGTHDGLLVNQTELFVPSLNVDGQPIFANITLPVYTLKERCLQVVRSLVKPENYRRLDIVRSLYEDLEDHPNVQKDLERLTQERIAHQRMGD
VCB complex, sequence (Q15370 1-104 partner limits assumed): as the sequence (Q15370 1-104 partner limits assumed) above
VCB complex, sequence (Q15369 17-112 partner limits assumed): as the sequence (Q15369 17-112 partner limits assumed) above

## Cc1ncsc1-c1ccc(CNC(=O)[C@@H]2C[C@@H](O)CN2C(=O)[C@@H](NC(=O)COCCOCCOCCOCCOCCOCC(=O)N[C@H](C(=O)N2C[C@H](O)C[C@H]2C(=O)NCc2ccc(-c3scnc3C)cc2)C(C)(C)C)C(C)(C)C)cc1 [CM11, N^1,N^20-bis((S)-1-((2S,4R)-4-hydroxy-2-((4-(4-methylthiazol-5-yl)benzyl)carbamoyl)pyrrolidin-1-yl)-3,3-dimethyl-1-oxobutan-2-yl)-3,6,9,12,15,18-hexaoxaicosanediamide]
[1]
  Kd: 0.025 ± 0.003 µM
  n (stoichiometry): 0.866 ± 0.003
  ΔG: -43.5 ± 0.42 kJ/mol
  ΔH: -47.3 ± 0.42 kJ/mol
  α (cooperativity/avidity): 4
  −TΔS: -3.8 ± 0.42 kJ/mol
[2]
  effective degrading concentrations lower than inhibitory concentrations of VH032: > 3 orders of magnitude
  increase in cellular activity compared to parent inhibitor VH032: > 1000 fold
[2]; 1 μM, 10 h
  depletion/degradation of VHL (pVHL30): total knockdown; also recorded: complete depletion
[2]; 4 h
  DC99, complete depletion of pVHL30: 10 nM
[2]; 24 h, read-out: half-degrading concentration (DC50) of pVHL30
  DC50: ~0.1 µM
[2]; IOX4 50 μM 30 min before CM11 1 μM, 4 h
  cellular activity with IOX4 pre-treatment: did not impact the cellular activity
[2]; MG132 50 μM 30 min before CM11 1 μM, 4 h
  degradation of pVHL30 with MG132 pre-treatment: completely abrogated
[2]; MLN4924 3 μM before CM11 1 μM, 4 h
  degradation of pVHL30 with MLN4924 pre-treatment: prevented
[2]; VH032 150 μM 30 min before CM11 1 μM, 4 h
  pVHL degradation with VH032 pre-treatment (competition): blocked pVHL degradation
[2]; time course, after 8 h
  decrease of pVHL30 level: essentially to completion
[3]
  HIF-1α level: slight increase
  protein levels of Hdy-HIF-1α: detectable albeit low increase
[4]
  molecular weight of species of shifted peak: ~90 kDa
  shift of VCB peak / ternary complex formation: migrates more quickly
